Numbers after ± are expanded uncertainties.
Conditions: 101.33 kPa, Liquid; for viscosity: Capillary tube (Ostwald / Ubbelohde) method; for mass density: Vibrating tube method

With `CC(C)CO` [2-methyl-1-propanol] the viscosity (293.15 K) was 4.087 ± 0.1 mPa·s, the mass density (293.15 K) was 801.82 ± 0.24 kg/m3 and the viscosity (303.15 K) was 2.877 ± 0.1 mPa·s. The mass density (303.15 K) was 794.06 ± 0.24 kg/m3, the viscosity (313.15 K) was 2.091 ± 0.1 mPa·s and the mass density (313.15 K) was 786.12 ± 0.24 kg/m3. The viscosity (323.15 K) was 1.576 ± 0.1 mPa·s, the mass density (323.15 K) was 777.94 ± 0.24 kg/m3 and the viscosity (333.15 K) was 1.125 ± 0.1 mPa·s. For the same molecule, the mass density (333.15 K) was 769.46 ± 0.24 kg/m3.
For `NCCCO` [3-amino-1-propanol], the viscosity (293.15 K) was 40.46 ± 0.27 mPa·s, the mass density (293.15 K) was 987.65 ± 0.23 kg/m3 and the viscosity (303.15 K) was 23.98 ± 0.18 mPa·s. The mass density (303.15 K) was 979.65 ± 0.23 kg/m3, the viscosity (313.15 K) was 15.31 ± 0.14 mPa·s and the mass density (313.15 K) was 971.61 ± 0.23 kg/m3. It also gave a viscosity (323.15 K) of 10.22 ± 0.12 mPa·s, a mass density (323.15 K) of 963.52 ± 0.23 kg/m3 and a viscosity (333.15 K) of 6.962 ± 0.11 mPa·s. The mass density (333.15 K) was 955.38 ± 0.23 kg/m3.
Molecule `CCCO` [propan-1-ol] has a viscosity (293.15 K) of 2.204 ± 0.1 mPa·s, a mass density (293.15 K) of 803.57 ± 0.15 kg/m3 and a viscosity (303.15 K) of 1.513 ± 0.1 mPa·s. The mass density (303.15 K) was 795.53 ± 0.15 kg/m3, the viscosity (313.15 K) was 1.018 ± 0.1 mPa·s and the mass density (313.15 K) was 787.35 ± 0.15 kg/m3. It also gave a viscosity (323.15 K) of 0.79 ± 0.1 mPa·s, a mass density (323.15 K) of 778.98 ± 0.15 kg/m3 and a mass density (333.15 K) of 770.38 ± 0.16 kg/m3.
In the case of `CC(C)O` [propan-2-ol], the viscosity (293.15 K) is reported as 2.362 ± 0.1 mPa·s, the mass density (293.15 K) is reported as 785.35 ± 0.17 kg/m3 and the viscosity (303.15 K) is reported as 1.762 ± 0.1 mPa·s. It also gave a mass density (303.15 K) of 776.86 ± 0.17 kg/m3, a viscosity (313.15 K) of 1.2 ± 0.1 mPa·s and a mass density (313.15 K) of 768.07 ± 0.17 kg/m3. It also gave a viscosity (323.15 K) of 0.938 ± 0.1 mPa·s, a mass density (323.15 K) of 758.89 ± 0.18 kg/m3 and a viscosity (333.15 K) of 0.604 ± 0.1 mPa·s. For the same molecule, the mass density (333.15 K) was 749.25 ± 0.18 kg/m3.

— the NIST ThermoML archive (doi:10.1021/je3011634)
